Test results as given in the supplement of paper PMC11061612.

Key:
Test in all cases: combination Emax (second highest fraction inhibited in the dose matrix, 72 h); higher = more inhibition; extreme values may be limits of the assay
A172 (Glioblastoma) = tested on: A172 (Glioblastoma)
How it was run: (§1)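 Cell lines grown in DMEM/F12 or RPMI with 10% FBS were plated in 1536-well plates and held 24 hours at 37°C, 5% CO2 before 72 hours of exposure to two-drug dose matrices, with DMSO typically at 0.2%. CellTiter-Glo 2.0 luminescence gave viability, which was converted to inhibition. Vehicle wells were set to 0 and blank wells to 1. Combination Emax is the second-highest inhibition in the matrix, and Bliss excess is the observed combination effect minus the expected EA + EB − EA·EB, where EA and EB are the single-agent effects.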

[1] = tested on: BICR78 (Oral Cavity Carcinoma)
How it was run: as §1

[2] = tested on: CAL-39 (Other Solid Carcinomas)
How it was run: as §1

[3] = tested on: D-283MED (Other Solid Carcinomas)
How it was run: as §1

[4] = tested on: ETK-1 (Biliary Tract Carcinoma)
How it was run: as §1

[5] = tested on: GDM-1 (Acute Myeloid Leukemia)
How it was run: as §1

H4 (Low Grade Glioma) = tested on: H4 (Low Grade Glioma)
How it was run: as §1

[6] = tested on: HLE (Hepatocellular Carcinoma)
How it was run: as §1

HuO9 (Osteosarcoma) = tested on: HuO9 (Osteosarcoma)
How it was run: as §1

[7] = tested on: KG-1 (Acute Myeloid Leukemia)
How it was run: as §1

MCF7 (Breast Carcinoma) = tested on: MCF7 (Breast Carcinoma)
How it was run: as §1

MSTO-211H (Mesothelioma) = tested on: MSTO-211H (Mesothelioma)
How it was run: as §1

[8] = tested on: NCI-H1688 (Small Cell Lung Carcinoma)
How it was run: as §1

SK-MEL-1 (Melanoma) = tested on: SK-MEL-1 (Melanoma)
How it was run: as §1

[9] = tested on: SLVL (B-Cell Non-Hodgkin's Lymphoma)
How it was run: as §1

[10] = tested on: SNU-61 (Colorectal Carcinoma)
How it was run: as §1

[11] = tested on: TYK-nu (Ovarian Carcinoma)
How it was run: as §1

[12] = tested on: U-118-MG (Low Grade Glioma)
How it was run: as §1

[13] = tested on: YT (Other Blood Carcinomas)
How it was run: as §1

| SMILES | combination Emax (A172 (Glioblastoma)) | combination Emax [1] | combination Emax [2] | combination Emax [3] | combination Emax [4] | combination Emax [5] | combination Emax (H4 (Low Grade Glioma)) | combination Emax [6] | combination Emax (HuO9 (Osteosarcoma)) | combination Emax [7] | combination Emax (MCF7 (Breast Carcinoma)) | combination Emax (MSTO-211H (Mesothelioma)) | combination Emax [8] | combination Emax (SK-MEL-1 (Melanoma)) | combination Emax [9] | combination Emax [10] | combination Emax [11] | combination Emax [12] | combination Emax [13] |
| --- | --- | --- | --- | --- | --- | --- | --- | --- | --- | --- | --- | --- | --- | --- | --- | --- | --- | --- | --- |
| COc1nnc2ccc(N3CCC(c4ccc(OCCN5CCN(C)C(=O)[C@H]5C)cc4)CC3)nn12 [AZD5153] + Cn1cnc2c(F)c(Nc3ccc(Br)cc3Cl)c(C(=O)NOCCO)cc21 [Selumetinib] (first compound max 1 µM, 7x7, partner max 10 µM) | 0.511 | 0.548 | 0.827 | 0.849 | 0.463 | 0.823 | 0.699 | 0.341 | 0.706 | 0.817 | 0.704 | 0.41 | 0.384 | 0.983 | 0.738 | 0.69 | 0.755 | 0.362 | 0.693 |
| COc1cc2ncnc(Nc3ccc(F)c(Cl)c3)c2cc1OCCCN1CCOCC1 [Gefitinib] + CC(C)n1c(=O)n(C)c2cnc3cc(F)c(-c4ccc(OCCCN5CCCCC5)nc4)cc3c21 [AZD1390] (first compound max 10 µM, 7x7, partner max 0.3 µM) | 0.169 | 0.286 | 0.833 | 0.425 | 0.576 | 0.131 | 0.121 | 0.101 | 0.12 | 0.182 | 0.0973 | 0.0343 | 0.233 | 0.43 | 0.185 | 0.18 | 0.197 | 0.0987 | 0.185 |
| COc1nnc2ccc(N3CCC(c4ccc(OCCN5CCN(C)C(=O)[C@H]5C)cc4)CC3)nn12 [AZD5153] + Cc1c2c(nn1C)CSCc1cc(n(C)n1)CSc1cc(c3ccccc3c1)OCCCc1c(C(=O)O)n(C)c3c-2c(Cl)ccc13 [AZD5991] (first compound max 1 µM, 7x7, partner max 1 µM) | 0.485 | 0.501 | 0.905 | 0.979 | 0.513 | 1 | 0.888 | 0.626 | 0.996 | 1 | 0.769 | 0.293 | 0.647 | 0.679 | 0.715 | 0.452 | 0.646 | 0.352 | 1 |
| C[C@@H](c1ccc2nccn2c1)n1nnc2ncc(-c3cnn(C)c3)nc21 [Savolitinib] + CC1(C)CCC(CN2CCN(c3ccc(C(=O)NS(=O)(=O)c4ccc(NCC5CCOCC5)c([N+](=O)[O-])c4)c(Oc4cnc5[nH]ccc5c4)c3)CC2)=C(c2ccc(Cl)cc2)C1 [Venetoclax] (first compound max 1 µM, 7x7, partner max 1 µM) | 0.145 | 0.201 | 0.157 | 0.126 | 0.0864 | 0.515 | 0.218 | 0.155 | 0.197 | 0.38 | 0.129 | 0.114 | 0.239 | 0.158 | 0.406 | 0.143 | 0.168 | 0.218 | 0.336 |
| NC1(C(=O)N[C@@H](CCO)c2ccc(Cl)cc2)CCN(c2ncnc3[nH]ccc23)CC1 [Capivasertib] + Cn1cnc2c(F)c(Nc3ccc(Br)cc3Cl)c(C(=O)NOCCO)cc21 [Selumetinib] (first compound max 10 µM, 7x7, partner max 10 µM) | 0.48 | 0.548 | 0.762 | 0.548 | 0.48 | 0.73 | 0.61 | 0.236 | 0.509 | 0.37 | 0.519 | 0.379 | 0.372 | 0.874 | 0.806 | 0.46 | 0.667 | 0.663 | 0.446 |
| COc1nnc2ccc(N3CCC(c4ccc(OCCN5CCN(C)C(=O)[C@H]5C)cc4)CC3)nn12 [AZD5153] + CC1(C)CCC(CN2CCN(c3ccc(C(=O)NS(=O)(=O)c4ccc(NCC5CCOCC5)c([N+](=O)[O-])c4)c(Oc4cnc5[nH]ccc5c4)c3)CC2)=C(c2ccc(Cl)cc2)C1 [Venetoclax] (first compound max 1 µM, 7x7, partner max 1 µM) | 0.479 | 0.468 | 0.631 | 0.835 | 0.445 | 1 | 0.677 | 0.336 | 0.796 | 1 | 0.669 | 0.271 | 0.384 | 0.625 | 0.802 | 0.389 | 0.571 | 0.367 | 0.714 |
